Test results reported in ChEMBL document CHEMBL4364276, “Discovery of 4-phenyl-2H-benzo[b][1,4]oxazin-3(4H)-one derivatives as potent and orally active PI3K/mTOR dual inhibitors” (Eur J Med Chem, 2019).

Columns and labels:
[1] = target: Aurora kinase B (Homo sapiens) (UniProt Q96GD4); assay: Inhibition of human Aurora B at 100 nM using [H-LRRASLG] as substrate by [gamma-33P]-ATP assay
[2] = target: TRAF2 and NCK-interacting protein kinase (Homo sapiens) (UniProt Q9UKE5); assay: Inhibition of human TNIK at 100 nM using RLGRDKYKTLRQIRQ as substrate by [gamma-33P]-ATP assay
[3] = target: Calcium/calmodulin-dependent protein kinase kinase 2 (Homo sapiens) (UniProt Q96RR4); assay: Inhibition of human CAMKK2 at 100 nM using MBP as substrate by [gamma-33P]-ATP assay
[4] = target: Mitogen-activated protein kinase 9 (Homo sapiens) (UniProt P45984); assay: Inhibition of human JNK2 at 100 nM using ATF2 as substrate by [gamma-33P]-ATP assay
[5] = target: CDK3/Cyclin-E2 (Homo sapiens) (UniProt O96020+Q00526); assay: Inhibition of human CDK3/cyclin-E2 at 100 nM using histone H1 as substrate by [gamma-33P]-ATP assay; assay type: protein-complex assay
[6] = target: Tyrosine-protein kinase receptor UFO (Homo sapiens) (UniProt P30530); assay: Inhibition of human AXL at 100 nM using EAIYAAPFAKKK as substrate by [gamma-33P]-ATP assay
[7] = target: Homeodomain-interacting protein kinase 2 (Homo sapiens) (UniProt Q9H2X6); assay: Inhibition of human HIPK2 at 100 nM using MBP as substrate by [gamma-33P]-ATP assay
[8] = target: Tyrosine-protein kinase JAK3 (Homo sapiens) (UniProt P52333); assay: Inhibition of human JAK3 at 100 nM using poly[Glu:Tyr] (4:1) as substrate by [gamma-33P]-ATP assay
[9] = Inhibition of PI3K/Akt/mTOR signaling in human HeLa cells assessed as reduction in AKT 308 phosphorylation incubated for 24 hrs by Western blot analysis; assay type: cell-based
[10] = target: Dual specificity mitogen-activated protein kinase kinase 6 (Homo sapiens) (UniProt P52564); assay: Inhibition of human MKK6 at 100 nM using p38alpha as substrate by [gamma-33P]-ATP assay
[11] = target: Calcium/calmodulin-dependent protein kinase type 1G (Homo sapiens) (UniProt Q96NX5); assay: Inhibition of human CAMK1G at 100 nM using KKALRRQETVDAL as substrate by [gamma-33P]-ATP assay
[12] = target: Cyclin-dependent kinase 5/CDK5 activator 1 (Homo sapiens) (UniProt Q00535+Q15078); assay: Inhibition of human CDK5/p25 at 100 nM using histone H1 as substrate by [gamma-33P]-ATP assay; assay type: protein-complex assay
[13] = target: Mitogen-activated protein kinase 7 (Homo sapiens) (UniProt Q13164); assay: Inhibition of human ERK5 at 100 nM using MBP as substrate by [gamma-33P]-ATP assay
[14] = target: Cyclin-dependent kinase 14/Cyclin-Y (Homo sapiens) (UniProt O94921+Q8ND76); assay: Inhibition of human CDK14/cyclin-Y at 100 nM using RB protein as substrate by [gamma-33P]-ATP assay; assay type: protein-complex assay
[15] = target: G protein-coupled receptor kinase 5 (Homo sapiens) (UniProt P34947); assay: Inhibition of human GRK5 at 100 nM using casein as substrate by [gamma-33P]-ATP assay
[16] = target: NUAK family SNF1-like kinase 1 (Homo sapiens) (UniProt O60285); assay: Inhibition of human ARK5 at 100 nM using KKKVSRSGLYRSPSMPENLNRPR as substrate by [gamma-33P]-ATP assay
[17] = target: Fibroblast growth factor receptor 1 (Homo sapiens) (UniProt P11362); assay: Inhibition of human FGFR1 at 100 nM using KKKSPGEYVNIEFG as substrate by [gamma-33P]-ATP assay
[18] = target: Serine/threonine-protein kinase 32B (Homo sapiens) (UniProt Q9NY57); assay: Inhibition of human STK32B at 100 nM using MBP as substrate by [gamma-33P]-ATP assay
[19] = target: Insulin-like growth factor 1 receptor (Homo sapiens) (UniProt P08069); assay: Inhibition of human IGF1R at 100 nM using KKKSPGEYVNIEFG as substrate by [gamma-33P]-ATP assay
[20] = target: CDK2/Cyclin-E2 (Homo sapiens) (UniProt P24941+O96020); assay: Inhibition of human CDK2/cyclin-E2 at 100 nM using histone H1 as substrate by [gamma-33P]-ATP assay; assay type: protein-complex assay
[21] = target: Receptor-interacting serine/threonine-protein kinase 3 (Homo sapiens) (UniProt Q9Y572); assay: Inhibition of human RIPK3 at 100 nM using MBP as substrate by [gamma-33P]-ATP assay
[22] = target: [Pyruvate dehydrogenase (acetyl-transferring)] kinase isozyme 4, mitochondrial (Homo sapiens) (UniProt Q16654); assay: Inhibition of human PDK4 at 100 nM using MBP as substrate by [gamma-33P]-ATP assay
[23] = target: Casein kinase I isoform delta (Homo sapiens) (UniProt P48730); assay: Inhibition of human CK1D at 100 nM using KRRRAL[pS]VASLPGL as substrate by [gamma-33P]-ATP assay
[24] = target: Ribosomal protein S6 kinase alpha-3 (Homo sapiens) (UniProt P51812); assay: Inhibition of human RSK2 at 100 nM using KKLNRTLSVA as substrate by [gamma-33P]-ATP assay
[25] = target: Serine/threonine-protein kinase Nek4 (Homo sapiens) (UniProt P51957); assay: Inhibition of human NEK4 at 100 nM using MBP as substrate by [gamma-33P]-ATP assay
[26] = target: Serine/threonine-protein kinase PLK2 (Homo sapiens) (UniProt Q9NYY3); assay: Inhibition of human PLK2 at 100 nM using casein as substrate by [gamma-33P]-ATP assay
[27] = target: Maternal embryonic leucine zipper kinase (Homo sapiens) (UniProt Q14680); assay: Inhibition of human MELK at 100 nM using KKLNRTLSFAEPG as substrate by [gamma-33P]-ATP assay
[28] = Half life in Sprague-Dawley rat at 10 mg/kg, po measured upto 24 hrs by LC-MS/MS analysis; assay type: ADME, organism-based; settings: in vivo
[29] = target: Focal adhesion kinase 1 (Homo sapiens) (UniProt Q05397); assay: Inhibition of human FAK at 100 nM using poly[Glu:Tyr] (4:1) as substrate by [gamma-33P]-ATP assay
[30] = target: Calcium/calmodulin-dependent protein kinase type 1 (Homo sapiens) (UniProt Q14012); assay: Inhibition of human CAMK1A at 100 nM using KKALRRQETVDAL as substrate by [gamma-33P]-ATP assay
[31] = target: Tyrosine-protein kinase Blk (Homo sapiens) (UniProt P51451); assay: Inhibition of human BLK at 100 nM using poly[Glu:Tyr](4:1) as substrate by [gamma-33P]-ATP assay

G protein-coupled receptor kinase 5 (Homo sapiens), sequence (P34947 whole entry, looked up): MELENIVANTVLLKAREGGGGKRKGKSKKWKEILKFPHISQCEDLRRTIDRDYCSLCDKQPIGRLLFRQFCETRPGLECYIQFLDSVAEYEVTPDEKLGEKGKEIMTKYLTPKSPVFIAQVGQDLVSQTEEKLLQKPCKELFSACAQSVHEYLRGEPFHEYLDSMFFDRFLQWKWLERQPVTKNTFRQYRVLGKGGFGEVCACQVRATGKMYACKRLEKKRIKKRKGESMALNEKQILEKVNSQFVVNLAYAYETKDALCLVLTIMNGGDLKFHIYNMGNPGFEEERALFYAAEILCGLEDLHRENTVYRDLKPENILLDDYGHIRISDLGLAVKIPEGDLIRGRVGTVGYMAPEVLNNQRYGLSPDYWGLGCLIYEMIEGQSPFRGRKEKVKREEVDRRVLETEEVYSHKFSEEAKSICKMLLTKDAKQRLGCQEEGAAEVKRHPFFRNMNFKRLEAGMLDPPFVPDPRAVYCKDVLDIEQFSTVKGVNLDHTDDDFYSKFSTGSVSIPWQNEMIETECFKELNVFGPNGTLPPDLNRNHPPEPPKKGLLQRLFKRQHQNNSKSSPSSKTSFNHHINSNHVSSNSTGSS
Calcium/calmodulin-dependent protein kinase type 1 (Homo sapiens), sequence (Q14012 whole entry, looked up): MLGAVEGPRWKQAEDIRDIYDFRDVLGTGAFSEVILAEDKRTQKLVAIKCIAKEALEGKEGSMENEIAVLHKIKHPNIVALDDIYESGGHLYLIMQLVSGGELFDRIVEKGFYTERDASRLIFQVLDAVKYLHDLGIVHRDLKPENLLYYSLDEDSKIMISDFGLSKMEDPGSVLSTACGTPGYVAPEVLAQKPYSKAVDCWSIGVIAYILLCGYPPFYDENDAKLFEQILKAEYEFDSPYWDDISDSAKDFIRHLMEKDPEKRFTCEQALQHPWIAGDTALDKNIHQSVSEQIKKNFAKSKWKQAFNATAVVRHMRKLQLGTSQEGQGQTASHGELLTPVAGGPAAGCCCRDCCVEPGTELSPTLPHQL
Aurora kinase B (Homo sapiens), sequence (Q96GD4 whole entry): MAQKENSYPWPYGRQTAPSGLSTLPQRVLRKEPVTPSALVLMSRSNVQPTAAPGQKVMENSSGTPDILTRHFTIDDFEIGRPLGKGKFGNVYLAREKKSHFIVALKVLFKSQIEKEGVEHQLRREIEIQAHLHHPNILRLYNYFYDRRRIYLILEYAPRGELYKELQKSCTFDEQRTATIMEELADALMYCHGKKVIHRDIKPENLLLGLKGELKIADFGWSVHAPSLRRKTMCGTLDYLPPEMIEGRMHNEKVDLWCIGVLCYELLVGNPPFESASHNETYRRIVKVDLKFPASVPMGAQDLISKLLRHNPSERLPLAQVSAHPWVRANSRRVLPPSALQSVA
[Pyruvate dehydrogenase (acetyl-transferring)] kinase isozyme 4, mitochondrial (Homo sapiens), sequence (Q16654 whole entry, looked up, canonical isoform): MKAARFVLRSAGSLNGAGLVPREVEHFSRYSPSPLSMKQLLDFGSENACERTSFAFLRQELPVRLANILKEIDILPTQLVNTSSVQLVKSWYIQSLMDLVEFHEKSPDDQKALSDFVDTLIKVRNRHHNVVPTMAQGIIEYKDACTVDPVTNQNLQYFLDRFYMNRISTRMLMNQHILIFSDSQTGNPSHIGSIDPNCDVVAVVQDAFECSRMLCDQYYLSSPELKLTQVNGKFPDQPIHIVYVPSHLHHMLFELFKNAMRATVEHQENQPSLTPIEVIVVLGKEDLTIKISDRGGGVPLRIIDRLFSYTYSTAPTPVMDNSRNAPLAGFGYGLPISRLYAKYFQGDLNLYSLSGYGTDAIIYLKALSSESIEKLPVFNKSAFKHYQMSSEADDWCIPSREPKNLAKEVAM
Insulin-like growth factor 1 receptor (Homo sapiens), sequence (P08069 31-736 limits assumed): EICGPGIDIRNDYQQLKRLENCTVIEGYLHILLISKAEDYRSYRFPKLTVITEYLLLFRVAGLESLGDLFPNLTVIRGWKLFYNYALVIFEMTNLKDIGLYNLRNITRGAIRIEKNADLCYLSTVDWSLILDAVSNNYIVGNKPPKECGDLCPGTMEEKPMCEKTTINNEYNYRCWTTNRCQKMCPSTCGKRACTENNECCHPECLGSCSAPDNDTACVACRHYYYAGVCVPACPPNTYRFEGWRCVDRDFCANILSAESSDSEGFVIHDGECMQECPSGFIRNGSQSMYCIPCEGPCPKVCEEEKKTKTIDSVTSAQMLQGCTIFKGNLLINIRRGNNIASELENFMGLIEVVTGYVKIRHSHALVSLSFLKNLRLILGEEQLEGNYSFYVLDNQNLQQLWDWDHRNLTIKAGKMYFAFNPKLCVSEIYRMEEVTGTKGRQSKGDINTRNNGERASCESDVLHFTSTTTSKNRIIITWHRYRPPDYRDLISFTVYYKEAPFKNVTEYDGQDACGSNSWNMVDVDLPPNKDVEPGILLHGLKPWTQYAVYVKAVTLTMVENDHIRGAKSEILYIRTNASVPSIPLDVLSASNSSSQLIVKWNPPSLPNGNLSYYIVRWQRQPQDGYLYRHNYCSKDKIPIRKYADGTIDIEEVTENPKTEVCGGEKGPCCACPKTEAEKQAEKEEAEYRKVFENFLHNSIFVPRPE
Insulin-like growth factor 1 receptor (Homo sapiens), sequence (P08069 741-1367 limits assumed): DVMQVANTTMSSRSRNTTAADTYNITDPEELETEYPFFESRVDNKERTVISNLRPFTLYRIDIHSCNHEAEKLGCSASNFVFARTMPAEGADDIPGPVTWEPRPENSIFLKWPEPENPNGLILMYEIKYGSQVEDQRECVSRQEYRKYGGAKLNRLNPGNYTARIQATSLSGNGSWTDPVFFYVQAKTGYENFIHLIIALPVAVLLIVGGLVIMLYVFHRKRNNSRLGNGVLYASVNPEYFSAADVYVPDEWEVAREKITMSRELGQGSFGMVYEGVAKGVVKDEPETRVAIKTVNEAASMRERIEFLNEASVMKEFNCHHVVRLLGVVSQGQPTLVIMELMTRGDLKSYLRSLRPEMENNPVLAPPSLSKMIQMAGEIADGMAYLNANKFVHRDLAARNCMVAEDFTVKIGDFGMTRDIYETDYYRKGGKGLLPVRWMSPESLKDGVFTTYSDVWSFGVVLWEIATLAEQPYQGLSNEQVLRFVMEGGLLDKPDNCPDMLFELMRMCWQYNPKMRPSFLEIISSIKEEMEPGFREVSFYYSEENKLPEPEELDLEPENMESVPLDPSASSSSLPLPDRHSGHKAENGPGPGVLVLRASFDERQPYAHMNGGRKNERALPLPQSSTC
Cyclin-dependent kinase 5/CDK5 activator 1 (Homo sapiens), sequence (Q00535 whole entry): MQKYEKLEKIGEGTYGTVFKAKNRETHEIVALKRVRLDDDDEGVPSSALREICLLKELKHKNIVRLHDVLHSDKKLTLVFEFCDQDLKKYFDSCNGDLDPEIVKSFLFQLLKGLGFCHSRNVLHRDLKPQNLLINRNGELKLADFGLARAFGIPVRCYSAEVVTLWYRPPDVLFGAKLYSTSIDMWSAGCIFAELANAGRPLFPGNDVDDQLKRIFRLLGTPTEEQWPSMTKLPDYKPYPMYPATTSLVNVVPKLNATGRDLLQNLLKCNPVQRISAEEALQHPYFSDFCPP
Cyclin-dependent kinase 5/CDK5 activator 1 (Homo sapiens), sequence (Q15078 99-307 partner limits assumed): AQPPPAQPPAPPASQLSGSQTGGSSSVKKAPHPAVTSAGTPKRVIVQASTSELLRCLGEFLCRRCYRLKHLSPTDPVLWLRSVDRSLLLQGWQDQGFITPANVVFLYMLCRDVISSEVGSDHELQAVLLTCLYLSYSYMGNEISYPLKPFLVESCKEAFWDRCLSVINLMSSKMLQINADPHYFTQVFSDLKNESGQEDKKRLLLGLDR
Serine/threonine-protein kinase PLK2 (Homo sapiens), sequence (Q9NYY3 whole entry, looked up): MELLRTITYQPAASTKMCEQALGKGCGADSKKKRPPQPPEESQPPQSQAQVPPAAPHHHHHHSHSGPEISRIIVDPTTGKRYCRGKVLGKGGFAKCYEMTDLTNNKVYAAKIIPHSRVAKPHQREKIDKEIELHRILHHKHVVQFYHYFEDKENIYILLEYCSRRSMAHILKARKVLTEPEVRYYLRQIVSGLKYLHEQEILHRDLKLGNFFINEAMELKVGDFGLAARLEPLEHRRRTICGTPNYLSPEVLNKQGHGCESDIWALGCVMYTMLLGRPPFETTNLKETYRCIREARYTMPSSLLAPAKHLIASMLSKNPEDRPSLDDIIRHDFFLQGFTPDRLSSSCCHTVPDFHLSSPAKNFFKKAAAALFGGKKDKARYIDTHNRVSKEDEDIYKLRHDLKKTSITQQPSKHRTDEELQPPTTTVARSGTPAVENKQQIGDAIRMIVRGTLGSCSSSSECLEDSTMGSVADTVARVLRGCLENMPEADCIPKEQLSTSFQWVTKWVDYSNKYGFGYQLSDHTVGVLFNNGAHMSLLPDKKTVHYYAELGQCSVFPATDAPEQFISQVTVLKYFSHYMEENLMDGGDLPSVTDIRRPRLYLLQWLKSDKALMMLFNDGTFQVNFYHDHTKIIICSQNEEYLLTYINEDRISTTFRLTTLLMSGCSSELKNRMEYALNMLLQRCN
Calcium/calmodulin-dependent protein kinase type 1G (Homo sapiens), sequence (Q96NX5 whole entry): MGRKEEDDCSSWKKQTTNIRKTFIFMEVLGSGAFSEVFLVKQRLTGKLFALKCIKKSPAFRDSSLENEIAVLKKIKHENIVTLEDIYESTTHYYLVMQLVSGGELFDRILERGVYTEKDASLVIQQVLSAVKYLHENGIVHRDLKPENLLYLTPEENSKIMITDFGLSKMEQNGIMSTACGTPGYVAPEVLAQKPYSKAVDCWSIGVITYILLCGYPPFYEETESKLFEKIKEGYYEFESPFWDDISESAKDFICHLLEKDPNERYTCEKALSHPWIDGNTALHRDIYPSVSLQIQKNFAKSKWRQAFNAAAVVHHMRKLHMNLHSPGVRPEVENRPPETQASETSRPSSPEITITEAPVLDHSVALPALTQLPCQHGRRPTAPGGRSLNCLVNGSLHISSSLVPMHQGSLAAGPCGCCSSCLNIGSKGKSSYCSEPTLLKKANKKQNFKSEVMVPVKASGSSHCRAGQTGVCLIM

For COc1ccc(N2C(=O)COc3ccc(-c4cnc(OC)c(NS(=O)(=O)c5ccc(F)cc5)c4)cc32)cc1, the inhibition [1] was -2.21%, the inhibition [2] was 15.6% and the inhibition [3] was 13.7%. The inhibition [4] was 22.4%, the inhibition [5] was 4% and the inhibition [6] was 25.4%. For the same compound, the inhibition [7] was -4.94%, the inhibition [8] was -4.79% and the inhibition [9] was “Dose-dependent effect”. The inhibition [10] was 4.5%, the inhibition [11] was 14.6% and the inhibition [12] was 9.26%. For the same compound, the inhibition [13] was -7.53%, the inhibition [14] was 4.76% and the inhibition [15] was -0.54%. It also gave an inhibition [16] of 0.26%, an inhibition [17] of -9.98% and an inhibition [18] of -3.89%. For the same compound, the inhibition [19] was -4.3%, the inhibition [20] was -7.8% and the inhibition [21] was -2.23%. The inhibition [22] was -4.54%, the inhibition [23] was 2.83% and the inhibition [24] was 19.6%. For the same compound, the inhibition [25] was -6.56%, the inhibition [26] was 4.64% and the inhibition [27] was 9.78%. It also gave a half-life [28] of 1.78 h, an inhibition [29] of 15.9% and an inhibition [30] of 1.42%. For the same compound, the inhibition [31] was 27.5%.
